Measurements taken from patent publication US7507749B2, “Antitumor agents” (priority 2001, dated 2009).
Where two headings read alike, the source gives them in different places.

Assays:
[1] = test system: mammary adenocarcinoma-17/Adr; assay: Test D: racemic compound 22c against early stage mammary adenocarcinoma-17/Adr; assay type: in vivo; settings: for % Body Wt Loss at Nadir / % T/C mass / Activity Rating / Day of Nadir / Drug Deaths / Growth Delay / Log Kill / Median Tumor Mass on Day 10 (Range) / Tumor Free day-42: days 1,2,3,6,7,8
Procedure: Female C3H/HeN (MTV-neg) mice were obtained from N.C.I. Frederick (D.O.B. was Oct. 9, 2000; D.O.A. was Nov. 14, 2000). […] Then, P.B.S. was added, and the pH was adjusted to 7 with HCl. 0.2 ml per injection was administered IV.

colon carcinoma 26 = test system: colon carcinoma 26
Procedure: In this trial the R-enantiomers of XK-469, compound 22c, and compound 22b were compared against advanced staged colon carcinoma 26 in female Balb/c mice. […] Cage #2 was 22b at 400 mg/kg and Cage #4 was 22c at 400 mg/kg.
The XK469-R, 22b, and 22c compound doses were all prepared the same, using 3% ethanol, 1% POE-80, and 0.5% sodium bicarbonate. The injection volume was 0.2 mu/mouse IV. […] The mice were Balb/c female mice: DOB Feb. 12, 2001; DOA Mar. 27, 2001; DOT Sep. 8, 2001, with an average body weight of 24.7 grams at the start of Rx administration. The tumor was Colon Carcinoma-26 passage 141; date of implant Sep. 8, 2001, and implanted at 30 to 60 mg fragments bilaterally SC. All tumors were 63 to 171 mg on day 6, the day of first Rx.

[2] = test system: mammary adenocarcinoma-16/C; assay: Test F: R-enantiomers of 22b and 22c against early staged mammary adenocarcinoma-16/C; assay type: in vivo, C3H female mice
Procedure: C3H female mice were obtained from N.C.I. (D.O.B. was […]; D.O.A. was Jan. 27, 2001). The mice weighed an average of 19.2 gm. Mice were implanted SC with mammary adenocarcinoma-16/C passage-170, a fast growing, highly invasive, highly metastatic tumor (D.O.T. was Mar. 8, 2001; Td was 1.2 days).
The R-enantiomers of both Compound 22c and Compound 22b were each suspended in 3% ethanol, 1% POE-80, 0.5% sodium bicarbonate (by volume) to effect solution, P.B.S. was then added and the pH adjusted to 7 with HCl. Adriamycin (ADRIA; lot number 20338c) was suspended in dH2O to effect solution and the pH was adjusted to 6.0. Mice were administered 0.2 ml per IV injection.

[3] = test system: pancreatic ductal adenocarcinoma-03; assay type: in vivo
Procedure: BDF1 female mice were obtained from N.C.I., CRL-Ral (D.O.B. was Feb. 26, 2001; D.O.A. was Mar. 10, 2001). The mice weighed an average of 22.5 gm. Mice were implanted SC with pancreatic ductal adenocarcinoma-03 passage 143. (D.O.T. was May 29, 2001; Td was 2.3 days).
The R-enantiomer of compound 22c was suspended in 3% ethanol, 1% POE-80, 0.25% sodium bicarbonate (by volume) to effect solution. dH2O was then added, and the pH adjusted to 7 with HCl. […] The R-enantiomer of compound 22b was suspended in 3% ethanol, 1% POE-80, 0.5% sodium-bicarbonate (by volume) to effect solution. Then, dH2O was added, and the pH adjusted to 7.5 with HCl. […] Adriamycin (source ADRIA; lot 2033BC) was suspended in dH2O to effect solution, and the pH was 6.0.
Treatment began six days following implant, at which time the tumors were palpable size (126 mg median). The duration of treatment was prolonged (18 days) in order to obtain a clear separation in efficacy between the compounds.

[4] = Cage 3, IV 50, 62.5, then 60 mg/kg/inj, total 352.5 mg/kg
[5] = Cage 4, IV 30, 37.5, then 36 mg/kg/inj, total 211.5 mg/kg
[6] = Cg 5, IV 50 mg/kg/inj days 6,8,10,13,15, total 250 mg/kg
[7] = Cage 2, IV 65 mg/kg/inj qd 1-4, total 260 mg/kg
[8] = Cage 3, IV 65 mg/kg/inj days 1,3,5,7, total 260 mg/kg
[9] = Cage 3, IV 65 mg/kg/inj days 1,3,5,7, total 260 mg/kg, listed as R-enantiomer of compound 22c
[10] = Cage 4, IV 40 mg/kg/inj days 1,3,5,7, total 160 mg/kg
[11] = Cage 4, IV 40 mg/kg/inj days 1,3,5,7, total 160 mg/kg, listed as R-enantiomer of compound 22c
[12] = Cg 13 in table (Cage 12 in text), IV 80 mg/kg/inj days 6,9,12,15,18,21, total 480 mg/kg

CC(Oc1ccc(Oc2ccc3ccc(Br)cc3n2)cc1)C(=O)O (racemic) [Racemic 22c, 2-[4-(7-bromoquinolin-2-yloxy)phenoxy]propanoic acid]
Duration of slowing of nerve conduction ([1]; Cage 3, 60 to 62.5 mg/kg dose IV): approximately 10 minutes
Neuromuscular toxicity ([1]; Cage 3, 60 to 62.5 mg/kg dose IV, mild gait disturbance): modest slowing of nerve conduction
% Body Wt Loss at Nadir [1, 4]: −5.5%
% T/C mass [1, 4]: 0%
Activity Rating [1, 4]: ++++ (>2.8)
Day of Nadir [1, 4]: 11 days
Drug Deaths [1, 4]: 0/5
Growth Delay [1, 4]: 14 days
Log Kill [1, 4]: 4.2
Median Tumor Mass on Day 10 (Range) [1, 4]: 0 (0-63) mg
Tumor Free day-42 [1, 4]: 0/5
Day tumors reached 1000 mg (range) ([1]; Cage 3, total 352.5 mg/kg IV): 21 (range 19-42) day
% Body Wt Loss at Nadir [1, 5]: −4.1%
% T/C mass [1, 5]: 5.6%
Activity Rating [1, 5]: ++++ (>2.8)
Day of Nadir [1, 5]: 13 days
Drug Deaths [1, 5]: 0/5
Growth Delay [1, 5]: 10 days
Log Kill [1, 5]: 3.0
Median Tumor Mass on Day 10 (Range) [1, 5]: 172 (0-344) mg
Tumor Free day-42 [1, 5]: 0/5
Neuromuscular toxicity ([1]; Cage 4, IV 30-37.5 mg/kg/inj, total 211.5 mg/kg): no gait disturbance
Day tumors reached 1000 mg (range) ([1]; Cage 4, total 211.5 mg/kg IV): 17 (range 14-21) day
Toxicity of dose group (colon carcinoma 26; Cage 4, 400 mg/kg, omitted from Table 8): toxic
Activity Rating (colon carcinoma 26; [6]): ++++ (>2.8)
CR's (colon carcinoma 26; [6]): 3/6
tumor free survivors on day 55 (colon carcinoma 26; [6]): 3/6

C[C@@H](Oc1ccc(Oc2ccc3ccc(Br)cc3n2)cc1)C(=O)O [Compound R-22c]
% Body Wt Loss at Nadir [2, 7]: −22.9%
% T/C mass [2, 7]: toxic
Activity Rating [2, 7]: toxic
Cause of death [2, 7]: G.I. epithelial damage
Day of Nadir [2, 7]: 6 days
Drug Deaths [2, 7]: 5/5
Growth Delay in Days [2, 7]: toxic
Log Kill [2, 7]: toxic
Median Tumor Mass on Day 10 (Range) [2, 7]: toxic
Median time for tumors to 1000 mg (range) [2, 7]: toxic
Neuromuscular toxicity [2, 7]: No neuromuscular toxicity
Tumor Free day-155 [2, 7]: 0/5
Drug Deaths ([2]; Cage 2, IV 65 mg/kg/inj qd 1-4, total 260 mg/kg, listed as R-enantiomer of compound 22c): All the mice died
% Body Wt Loss at Nadir [2, 8]: −8.3%
% T/C mass [2, 8]: 4%
Activity Rating [2, 8]: ++ (1.3-1.9)
Day of Nadir [2, 8]: 9 days
Day of full recovery of body weight [2, 8]: 12 days
Drug Deaths [2, 8]: 0/5
Growth Delay [2, 8]: 5.8 days
Log Kill [2, 8]: 1.7
Median Tumor Mass on Day 10 (Range) [2, 8]: 63 mg
Median time for tumors to 1000 mg (range) [2, 8]: 15.3 (14-21.5) days
Neuromuscular toxicity [2, 8]: no neuromuscular toxicity
Tumor Free day-155 [2, 8]: 0/5
% Body Wt Loss at Nadir [2, 9]: −8.3%
% T/C mass [2, 9]: 4%
Drug Deaths [2, 9]: no deaths
% Body Wt Loss at Nadir [2, 10]: +6.4%
% T/C mass [2, 10]: 9%
Activity Rating [2, 10]: ++ (1.3-1.9)
Day of Nadir [2, 10]: 8 days
Drug Deaths [2, 10]: 0/5
Growth Delay [2, 10]: 4.7 days
Log Kill [2, 10]: 1.4
Median Tumor Mass on Day 10 (Range) [2, 10]: 138 mg
Median time for tumors to 1000 mg (range) [2, 10]: 14.2 (12.5-16.7) days
Tumor Free day-155 [2, 10]: 1/5
% Body Wt Loss at Nadir [2, 11]: +6.4%
% T/C mass [2, 11]: 9%
Neuromuscular toxicity ([2]; whole trial (Test F), IV): completely devoid of neuromuscular toxicity
Behavior post injection ([3]; Cage 12 in text, IV 80 mg/kg/inj, lasted only a few minutes): agitated post IV injection
Neuromuscular toxicity ([3]; Cage 12 in text, IV 80 mg/kg/inj, total 480 mg/kg): no neuromuscular toxicity
% Body Wt change between day 6 and day 24 [3, 12]: +5.9%
% T/C mass [3, 12]: 2.8%
Activity Rating [3, 12]: ++++ (>2.8)
CR's [3, 12]: 3/4
Drug Deaths [3, 12]: 0/4
Growth Delay [3, 12]: 23.5 days
Log Kill [3, 12]: 3.1
Median Tumor Mass on Day 24 (Range) [3, 12]: 63 mg
Median time for tumors to 1,000 mg (range) [3, 12]: 40 days
PR's [3, 12]: 3/4
Tumor Free day-157 [3, 12]: 0/4
Drug Deaths (colon carcinoma 26; [6]): 0/6
% Body Wt change at nadir (colon carcinoma 26; mouse, in vivo): −8.1% (17)
Activity Rating (colon carcinoma 26; mouse, in vivo): ++++ (key: ++++: >2.8; +++: 2.0-2.8; ++: 1.3-1.9; +: 0.7-1.2; −: <0.7)
CR's (colon carcinoma 26; mouse, in vivo): 3/6
Growth Delay in Days (colon carcinoma 26; mouse, in vivo): 3/6
Log Kill (colon carcinoma 26; mouse, in vivo): >3.5
Median time for tumors to 700 mg (range) (colon carcinoma 26; mouse, in vivo): 3/6 tumor free
PR's (colon carcinoma 26; mouse, in vivo): 3/6
Tumor Free day-156 (colon carcinoma 26; mouse, in vivo): 3/6
day of nadir (colon carcinoma 26; mouse, in vivo): −8.1% (17) day
